Reference: patent EP0354694A1, “Therapeutic [1]benzothiopyrano[4,3-c]pyrazoles” (The Boots Company PLC, priority 1988, dated 1990)

Tested on: BALB/c mice
Assay: cutaneous hypersensitivity test (CH test), oxazolone-induced ear swelling
Assay type: in vivo
Details: Mus musculus, ip, 192 h; female BALB/c mice, intraperitoneal, daily from sensitisation for 8 days; lowest dose used with 20% or greater significant (p <0.05) reduction in ear swelling in two out of three CH tests; read-out: Minimum Effective Dose
Method: This test was carried out in the following way.
Female BALB/c mice, weight range 16-24 g, were used in groups of eight. The abdomen of each mouse was shaved and 20 µl of a solution of a sensitising agent, 5% w/v 4-ethoxymethylene-2-phenyl-2-oxazolin-5-one (oxazolone) in acetone:ethanol (1:1 by volume), was applied to the shaved area. Immediately after sensitisation, the test compound in one of the dosages listed below was injected intraperitoneally as a suspension in 1.5% v/v sorbitan esters, under the trade name Tween 80, in sterile water (100 µl). 100 µl of the same suspension was injected likewise every 24 hours for a further 7 days. The dosages used were selected from the following values: 50, 30, 10, 3, 1, 0.3, 0.1, 0.03 or 0.01 mg/kg.
Two groups of eight BALB/c mice were used as a control simultaneously with each test in a similar manner to that described above except that no test compound was included in the daily injections.
On the seventh day after sensitisation, 10 µl of a solution of 1% w/v oxazolone in acetone: olive oil (either 1:1 or 3:1 by volume) was applied to one ear (the challenged ear) of each of the test mice and the control mice. After 24 hours the thickness of the challenged ear and the thickness of the non-challenged ear of the same animal were measured with an engineer's screw gauge micrometer. The difference in thickness between the challenged ear and the non-challenged ear in each animal is a measure of the response of that animal to oxazolone. A comparison between the response of mice treated with the test compound and mice treated with the control indicates the effectiveness of the test compound as an immunomodulatory agent. The compounds were considered to be active at a particular dose if a 20% or greater reduction in ear swelling, which was statistically significant (p <0.05) according to Dunnett's test, between treated and control groups was obtained in two out of three CH tests, (or, where more than three tests have been carried out, a majority of the tests) at that dose (see for example Int. Arch. Allergy, 38, p246-259 (1970)).
Each of the compounds of formula I illustrated in Table A below was active at 50 mg/kg in two out of three tests at 50 mg/kg unless indicated otherwise (see Notes following the Table). The minimum effective dose (ie the lowest dose of those used at which the compound is active as defined above) for each compound is given in Table A. The Example (Ex) number or numbers listed adjacent to each compound indicates the process or processes illustrating the preparation of that compound in the Examples.

Point of comparison: `Cc1ccc(N2N=C3c4ccccc4SCC3(C)C2=O)cc1Cl` (stereo not drawn) [Example 19, 2-(3-chloro-4-methylphenyl)-3a-methyl-3a,4-dihydro[1]benzothiopyrano[4,3-c]-pyrazol-3(2H)-one], minimal effective dose 3 mg/kg. Against it:
- CC12CSc3ccccc3C1=NN(c1ccc(Cl)cc1)C2=O (stereo not drawn) [Example 11/ 23, 2-(4-chlorophenyl)-3a-methyl-3a,4-dihydro[1]benzothiopyrano[4,3-c]-pyrazol-3(2H)-one] — the same, 3 mg/kg
- CC12CSc3ccccc3C1=NN(c1ccc(F)cc1)C2=O (stereo not drawn) [Example 12, 2-(4-fluorophenyl)-3a-methyl-3a,4-dihydro[1]benzothiopyrano[4,3-c]-pyrazol-3(2H)-one] — 17-fold higher, 50 mg/kg
- CC12CSc3ccccc3C1=NN(c1ccc(Cl)c(Cl)c1)C2=O (stereo not drawn) [Example 13/ 24, 2-(3,4-dichlorophenyl)-3a-methyl-3a,4-dihydro[1]benzothiopyrano-[4,3-c]pyrazol-3(2H)-one] — 10-fold lower, 0.3 mg/kg
- CC12CSc3ccccc3C1=NN(c1cccc(Cl)c1)C2=O (stereo not drawn) [Example 14, 2-(3-chlorophenyl)-3a-methyl-3a,4-dihydro[1]benzothiopyrano[4,3-c]-pyrazol-3(2H)-one] — the same, 3 mg/kg
- CC12CSc3ccc(Cl)cc3C1=NN(c1ccc(Cl)c(Cl)c1)C2=O (stereo not drawn) [Example 15, 8-chloro-2-(3,4-dichlorophenyl)-3a-methyl-3a,4-dihydro[1]benzothio-pyrano[4,3-c]pyrazol-3(2H)-one] — 17-fold higher, 50 mg/kg
- CC12CSc3ccccc3C1=NN(c1ccc(C(F)(F)F)cc1)C2=O (stereo not drawn) [Example 16, 3a-methyl-2-(4-trifluoromethylphenyl)-3a,4-dihydro[1]benzothiopyrano-[4,3-c]pyrazol-3(2H)-one] — 10-fold lower, 0.3 mg/kg
- CC12CSc3ccccc3C1=NN(c1ccc(Br)c(Cl)c1)C2=O (stereo not drawn) [Example 17, 2-(4-bromo-3-chlorophenyl)-3a-methyl-3a,4-dihydro[1]benzothiopyrano[4,3-c]-pyrazol-3(2H)-one] — 10-fold lower, 0.3 mg/kg
- CC12CSc3ccccc3C1=NN(c1ccc(F)c(Cl)c1)C2=O (stereo not drawn) [Example 18, 2-(3-chloro-4-fluorophenyl)-3a-methyl-3a,4-dihydro[1]benzothiopyrano[4,3-c]-pyrazol-3(2H)-one] — the same, 3 mg/kg
- CC12CSc3ccccc3C1=NN(c1ccc(Br)cc1)C2=O (stereo not drawn) [Example 20, 2-(4-bromophenyl)-3a-methyl-3a,4-dihydro[1]benzothiopyrano[4,3-c]-pyrazol-3(2H)-one] — 3-fold lower, 1 mg/kg
- CSc1ccc(N2N=C3c4ccccc4SCC3(C)C2=O)cc1 (stereo not drawn) [Example 21, 3a-methyl-2-(4-methylthiophenyl)-3a,4-dihydro[1]benzothiopyrano[4,3-c]-pyrazol-3(2H)-one] — 17-fold higher, 50 mg/kg
- CC12CSc3ccc(F)cc3C1=NN(c1ccc(Cl)cc1)C2=O (stereo not drawn) [Example 22, 2-(4-chlorophenyl)-8-fluoro-3a-methyl-3a,4-dihydro[1]benzothiopyrano[4,3-c]-pyrazol-3(2H)-one] — 17-fold higher, 50 mg/kg
- CC1Sc2ccccc2-c2[nH]n(-c3ccc(Cl)cc3)c(=O)c21 (stereo not drawn) [Example 25, 2-(4-chlorophenyl)-4-methyl-1,4-dihydro[1]benzothiopyrano[4,3-c]-pyrazol-3(2H)-one] — 10-fold higher, 30 mg/kg
- CC1Sc2ccccc2-c2[nH]n(-c3ccc(Cl)c(Cl)c3)c(=O)c21 (stereo not drawn) [Example 26, 2-(3,4-dichlorophenyl)-4-methyl-1,4-dihydro[1]benzothiopyrano[4,3-c]-pyrazol-3(2H)-one] — 17-fold higher, 50 mg/kg
- CC1Sc2ccccc2-c2[nH]n(-c3ccc(F)cc3)c(=O)c21 (stereo not drawn) [Example 27, 2-(4-fluorophenyl)-4-methyl-1,4-dihydro[1]benzothiopyrano[4,3-c]-pyrazol-3(2H)-one] — 17-fold higher, 50 mg/kg
- CCC1Sc2ccccc2-c2[nH]n(-c3ccc(Cl)cc3)c(=O)c21 (stereo not drawn) [Example 28, 2-(4-chlorophenyl)-4-ethyl-1,4-dihydro[1]benzothiopyrano[4,3-c]-pyrazol-3(2H)-one] — 17-fold higher, 50 mg/kg
- CC1Sc2ccccc2-c2[nH]n(-c3ccc(C(F)(F)F)cc3)c(=O)c21 (stereo not drawn) [Example 29/ 34/ 44, 4-methyl-2-(4-trifluoromethylphenyl)-1,4-dihydro[1]benzothiopyrano[4,3-c]-pyrazol-3(2H)-one] — the same, 3 mg/kg
- CC1Sc2ccccc2-c2[nH]n(-c3ccc(Br)cc3)c(=O)c21 (stereo not drawn) [Example 30, 2-(4-bromophenyl)-4-methyl-1,4-dihydro[1]benzothiopyrano[4,3-c]-pyrazol-3(2H)-one] — the same, 3 mg/kg
- Cc1sc2ccccc2c2nn(-c3ccc(Cl)cc3)c(=O)c1-2 [Example 35, 2-(4-chlorophenyl)-4-methyl[1]-benzothiopyrano[4,3-c]pyrazol-3(2H)-one] — 3.3-fold higher, 10 mg/kg
- Cc1sc2ccccc2c2nn(-c3ccc(F)cc3)c(=O)c1-2 [Example 36, 2-(4-fluorophenyl)-4-methyl[1]benzo-thiopyrano[4,3-c]pyrazol-3(2H)-one] — 3.3-fold higher, 10 mg/kg
- CCc1sc2ccccc2c2nn(-c3ccc(Cl)cc3)c(=O)c1-2 [Example 37, 2-(4-chlorophenyl)-4-ethyl[1]benzo-thiopyrano[4,3-c]pyrazol-3(2H)-one] — 17-fold higher, 50 mg/kg
- Cc1sc2ccccc2c2nn(-c3ccc(C(F)(F)F)cc3)c(=O)c1-2 [Example 38, 4-methyl-2-(4-trifluoromethyl-phenyl)[1]benzothiopyrano[4,3-c]-pyrazol-3(2H)-one] — 10-fold lower, 0.3 mg/kg
- Cc1sc2ccccc2c2nn(-c3ccc(Br)cc3)c(=O)c1-2 [Example 39, 2-(4-bromophenyl)-4-methyl[1]benzo-thiopyrano[4,3-c]pyrazol-3(2H)-one] — 17-fold higher, 50 mg/kg
- COc1ccc(-n2nc3c4ccccc4sc(C)c-3c2=O)cc1 [Example 40, 2-(4-methoxyphenyl)-4-methyl[1]benzo-thiopyrano[4,3-c]pyrazol-3(2H)-one] — 17-fold higher, 50 mg/kg
- Cc1ccc2sc(C)c3c(=O)n(-c4ccc(Cl)cc4)nc-3c2c1 [Example 41, 2-(4-chlorophenyl)-4,8-dimethyl[1]-benzothiopyrano[4,3-c]pyrazol-3(2H)-one] — the same, 3 mg/kg
- Cc1sc2ccccc2c2nn(-c3cccc(Cl)c3)c(=O)c1-2 [Example 42, 2-(3-chlorophenyl)-4-methyl[1]benzo-thiopyrano[4,3-c]pyrazol-3(2H)-one] — 17-fold higher, 50 mg/kg
- Cc1sc2ccccc2c2nn(-c3ccc(Cl)c(Cl)c3)c(=O)c1-2 [Example 43, 2-(3,4-dichlorophenyl)-4-methyl[1]-benzothiopyrano[4,3-c]pyrazol-3(2H)-one] — the same, 3 mg/kg
